Results reported in patent US20180099967A1, “FUSED TRICYCLIC HETEROCYCLIC COMPOUNDS AS HIV INTEGRASE INHIBITORS” (MERCK SHARP & DOHME CORP., priority 2015, published 2018).
Read-outs that look alike come from different tables or passages of the source.

Tested on: HIV-1
Experiment: microbe, parasite or virus in culture
Type: cell-based, HIV-1 (H9IIIB or NL4-3 virus)
Procedure: HIV-1 replication was monitored using MT4-gag-GFP clone D3 (hereafter designate MT4-GFP), which are MT-4 cells modified to harbor a GFP reporter gene, the expression of which is dependent on the HIV-1 expressed proteins tat and rev. Productive infection of an MT4-GFP cell with HIV-1 results in GFP expression approximately 24 h post-infection.
MT4-GFP cells were maintained at 37° C./5% CO2/90% relative humidity in RPMI 1640 supplemented with 10% fetal bovine serum, 100 U/ml penicillin/streptomycin, and 400 μg/ml G418 to maintain the reporter gene. For infections, MT4-GFP cells were placed in the same medium lacking G418 and infected overnight with H9IIIB or NL4-3 virus at an approximate multiplicity of infection of 0.01 in the same incubation conditions. Cells were then washed and resuspended in either RPMI 1640 containing no serum at 1.6×10^5 cells/mL (serum free conditions), 10% normal human serum at 1.6×10^5 cells/mL (10% NHS conditions) or in 100% normal human serum at 2×10^5 cells/mL (100% NHS conditions). Compound plates were prepared by dispensing compounds taken up in DMSO into wells of 384 well poly D lysine-coated plates (0.2 μl/well) using an ECHO acoustic dispenser. Each compound was tested in a 10 point serial 3-fold dilution (typical final concentrations: 4.2 μM-0.21 nM). Controls included no inhibitor (DMSO only) and a combination of three antiviral agents (efavirenz, indinavir, and the integrase strand transfer inhibitor L-002254051 at final concentrations of 4 μM each). Cells were added (50 μL/well) to compound plates and the infected cells were maintained at 37° C./5% CO2/90% relative humidity.
Infected cells were quantified at two time points, ˜48 h and ˜72 h post-infection, by counting the number of green cells in each well using an Acumen eX3 scanner. […] Inhibition of R0 is calculated for each well, and IC50 value was determined using non-linear 4-parameter curve fitting.

[1] = read-out: WILD TYPE CELL ASSAY Viking IP (0% NHS)
[2] = read-out: WILD TYPE CELL ASSAY Viking IP (100% NHS)
[3] = Human immunodeficiency virus 1, read-out: WILD TYPE CELL ASSAY Viking IP (0% NHS) (nM)
[4] = Human immunodeficiency virus 1, read-out: WILD TYPE CELL ASSAY Viking IP (100% NHS) (nM)

CCN1C[C@@H]2CC(N3CCCC3)c3c(C(=O)NCc4ccc(F)cc4F)c(=O)c(O)c(n32)C1=O (single isomer, unassigned) [Compound 33] was tested, and the IC50 [1] was 9 nM and the IC50 [2] was 32 nM.
In the case of CCN1C[C@@H]2CC(N3CCCC3)c3c(C(=O)NCc4ccc(F)cc4F)c(=O)c(O)c(n32)C1=O (single isomer, unassigned) [Compound 34], the IC50 [1] is reported as 55 nM and the IC50 [2] is reported as 487 nM.
Work on CCN1C[C@H]2CC(N3CCCC3)c3c(C(=O)NCc4ccc(F)cc4F)c(=O)c(O)c(n32)C1=O (single isomer, unassigned) [Compound 35] yielded an IC50 [1] of 26 nM and an IC50 [2] of 62 nM.
For CCN1C[C@H]2CC(N3CCCC3)c3c(C(=O)NCc4ccc(F)cc4F)c(=O)c(O)c(n32)C1=O (single isomer, unassigned) [Compound 36], the IC50 [1] was 6 nM and the IC50 [2] was 1190 nM.
CCN1C[C@@H]2C[C@@H](N3CCCC3)c3c(C(=O)NCc4cccc(F)c4F)c(=O)c(O)c(n32)C1=O (single isomer, unassigned) [Compound 43] showed an IC50 [3] of 10 nM and an IC50 [4] of 42 nM.
For CCN1C[C@H]2C[C@H](NC(C)=O)c3c(C(=O)NCc4ccc(F)cc4F)c(=O)c(O)c(n32)C1=O (single isomer, unassigned) [Compound 54], the IC50 [3] was 6 nM and the IC50 [4] was 38 nM.
In the case of CCNC1CC2CN(CCOC)C(=O)c3c(O)c(=O)c(C(=O)NCc4ccc(F)cc4F)c1n32 (single isomer, unassigned) [Compound 65], the IC50 [3] is reported as 12 nM and the IC50 [2] is reported as 42 nM.
For CCNC1CC2CN(CCOC)C(=O)c3c(O)c(=O)c(C(=O)NCc4ccc(F)cc4F)c1n32 (single isomer, unassigned) [Compound 66], the IC50 [1] was 12 nM and the IC50 [2] was 180 nM.
For CCNC1CC2CN(CCOC)C(=O)c3c(O)c(=O)c(C(=O)NCc4ccc(F)cc4F)c1n32 (single isomer, unassigned) [Compound 67], the IC50 [1] was 7 nM and the IC50 [2] was 31 nM.
Molecule CCCN1CC2CC(NS(C)(=O)=O)c3c(C(=O)NCc4ccc(F)cc4F)c(=O)c(O)c(n32)C1=O (single isomer, unassigned) [Compound 68] has an IC50 [1] of 3 nM and an IC50 [2] of 26 nM.
Work on CCCN1CC2CC(NS(C)(=O)=O)c3c(C(=O)NCc4ccc(F)cc4F)c(=O)c(O)c(n32)C1=O (single isomer, unassigned) [Compound 69] yielded an IC50 [1] of 7 nM and an IC50 [2] of 4560 nM.
Molecule CCCN1CC2CC(NS(C)(=O)=O)c3c(C(=O)NCc4ccc(F)cc4F)c(=O)c(O)c(n32)C1=O (single isomer, unassigned) [Compound 70] has an IC50 [1] of 20 nM and an IC50 [2] of 1840 nM.
Work on CCCN1CC2CC(NS(C)(=O)=O)c3c(C(=O)NCc4ccc(F)cc4F)c(=O)c(O)c(n32)C1=O (single isomer, unassigned) [Compound 71] yielded an IC50 [1] of 3 nM and an IC50 [2] of 17 nM.
With CCN1C[C@@H]2C[C@@H](N)c3c(C(=O)NCc4ccc(F)cc4F)c(=O)c(O)c(n32)C1=O [Compound 1] the IC50 [1] was 2 nM and the IC50 [2] was 19 nM.
For CCN1C[C@@H]2C[C@H](N)c3c(C(=O)NCc4ccc(F)cc4F)c(=O)c(O)c(n32)C1=O [Compound 2], the IC50 [1] was 12 nM and the IC50 [2] was 374 nM.
With CCN1C[C@H]2C[C@H](N)c3c(C(=O)NCc4ccc(F)cc4F)c(=O)c(O)c(n32)C1=O [Compound 3] the IC50 [3] was 10 nM and the IC50 [4] was 4500 nM.
For CCN1C[C@H]2C[C@@H](N)c3c(C(=O)NCc4ccc(F)cc4F)c(=O)c(O)c(n32)C1=O [Compound 4], the IC50 [3] was 2 nM and the IC50 [4] was 158 nM.
CCN1C[C@@H]2C[C@@H](NC)c3c(C(=O)NCc4ccc(F)cc4F)c(=O)c(O)c(n32)C1=O [Compound 5] was tested, and the IC50 [3] was 2 nM and the IC50 [4] was 17 nM.
Work on CCN1C[C@@H]2C[C@H](NC)c3c(C(=O)NCc4ccc(F)cc4F)c(=O)c(O)c(n32)C1=O [Compound 6] yielded an IC50 [3] of 5 nM and an IC50 [4] of 245 nM.
With CCN1C[C@H]2C[C@H](NC)c3c(C(=O)NCc4ccc(F)cc4F)c(=O)c(O)c(n32)C1=O [Compound 7] the IC50 [3] was 2 nM and the IC50 [4] was 3420 nM.
CCN1C[C@H]2C[C@@H](NC)c3c(C(=O)NCc4ccc(F)cc4F)c(=O)c(O)c(n32)C1=O [Compound 8] gave an IC50 [3] of 2 nM and an IC50 [4] of 33 nM.
CCN[C@@H]1C[C@H]2CN(CC)C(=O)c3c(O)c(=O)c(C(=O)NCc4ccc(F)cc4F)c1n32 [Compound 9] was tested, and the IC50 [3] was 1 nM and the IC50 [4] was 11 nM.
Molecule CCN[C@H]1C[C@H]2CN(CC)C(=O)c3c(O)c(=O)c(C(=O)NCc4ccc(F)cc4F)c1n32 [Compound 10] has an IC50 [3] of 1 nM and an IC50 [4] of 170 nM.
CCN[C@H]1C[C@@H]2CN(CC)C(=O)c3c(O)c(=O)c(C(=O)NCc4ccc(F)cc4F)c1n32 [Compound 11] gave an IC50 [3] of 2 nM and an IC50 [4] of 1100 nM.
In the case of CCN[C@@H]1C[C@@H]2CN(CC)C(=O)c3c(O)c(=O)c(C(=O)NCc4ccc(F)cc4F)c1n32 [Compound 12], the IC50 [3] is reported as 10 nM and the IC50 [4] is reported as 32 nM.
CCN[C@H]1C[C@@H]2CN(CC)C(=O)c3c(O)c(=O)c(C(=O)NCc4c(F)cc(F)cc4F)c1n32 [Compound 13] showed an IC50 [3] of 7 nM and an IC50 [4] of 4020 nM.
Work on CCN[C@@H]1C[C@@H]2CN(CC)C(=O)c3c(O)c(=O)c(C(=O)NCc4c(F)cc(F)cc4F)c1n32 [Compound 14] yielded an IC50 [3] of 6 nM and an IC50 [4] of 47 nM.
For CCN[C@H]1C[C@@H]2CN(CC)C(=O)c3c(O)c(=O)c(C(=O)NCc4ccc(F)c(Cl)c4F)c1n32 [Compound 15], the IC50 [3] was 13 nM and the IC50 [4] was > 8400 nM.
For CCN[C@@H]1C[C@@H]2CN(CC)C(=O)c3c(O)c(=O)c(C(=O)NCc4ccc(F)c(Cl)c4F)c1n32 [Compound 16], the IC50 [3] was > 42000 nM and the IC50 [4] was > 42000 nM.
CCN[C@H]1C[C@@H]2CN(CC)C(=O)c3c(O)c(=O)c(C(=O)NCc4cccc(F)c4F)c1n32 [Compound 17] gave an IC50 [3] of 14 nM and an IC50 [4] of 1980 nM.
For CCN[C@@H]1C[C@@H]2CN(CC)C(=O)c3c(O)c(=O)c(C(=O)NCc4cccc(F)c4F)c1n32 [Compound 18], the IC50 [3] was 10 nM and the IC50 [4] was 25 nM.
With CCN[C@H]1C[C@@H]2CN(CC)C(=O)c3c(O)c(=O)c(C(=O)NCc4cccc(Cl)c4F)c1n32 [Compound 19] the IC50 [3] was 10 nM and the IC50 [4] was 10900 nM.
CCN[C@@H]1C[C@@H]2CN(CC)C(=O)c3c(O)c(=O)c(C(=O)NCc4cccc(Cl)c4F)c1n32 [Compound 20] showed an IC50 [3] of 5 nM and an IC50 [4] of 28 nM.
With CCCN[C@H]1C[C@@H]2CN(CC)C(=O)c3c(O)c(=O)c(C(=O)NCc4ccc(F)cc4F)c1n32 [Compound 21] the IC50 [3] was 17 nM and the IC50 [4] was 2290 nM.
CCCN[C@@H]1C[C@@H]2CN(CC)C(=O)c3c(O)c(=O)c(C(=O)NCc4ccc(F)cc4F)c1n32 [Compound 22] was tested, and the IC50 [3] was 11 nM and the IC50 [4] was 34 nM.
CCN1C[C@H]2C[C@H](NCC3CC3)c3c(C(=O)NCc4ccc(F)cc4F)c(=O)c(O)c(n32)C1=O [Compound 23] gave an IC50 [3] of 43 nM and an IC50 [4] of 1090 nM.
CCN1C[C@H]2C[C@@H](NCC3CC3)c3c(C(=O)NCc4ccc(F)cc4F)c(=O)c(O)c(n32)C1=O [Compound 24] showed an IC50 [3] of 20 nM and an IC50 [4] of 37 nM.
CCN1C[C@H]2C[C@H](NCc3ccccc3)c3c(C(=O)NCc4ccc(F)cc4F)c(=O)c(O)c(n32)C1=O [Compound 25] gave an IC50 [3] of 28 nM and an IC50 [4] of 224 nM.
For CCN1C[C@H]2C[C@@H](NCc3ccccc3)c3c(C(=O)NCc4ccc(F)cc4F)c(=O)c(O)c(n32)C1=O [Compound 26], the IC50 [3] was 32 nM and the IC50 [4] was 108 nM.
CCN1C[C@H]2C[C@H](NCCOC)c3c(C(=O)NCc4ccc(F)cc4F)c(=O)c(O)c(n32)C1=O [Compound 27] was tested, and the IC50 [3] was 17 nM and the IC50 [4] was 968 nM.
In the case of CCN1C[C@H]2C[C@@H](NCCOC)c3c(C(=O)NCc4ccc(F)cc4F)c(=O)c(O)c(n32)C1=O [Compound 28], the IC50 [3] is reported as 6 nM and the IC50 [4] is reported as 21 nM.
In the case of CCN1C[C@H]2C[C@H](NCCC(F)(F)F)c3c(C(=O)NCc4ccc(F)cc4F)c(=O)c(O)c(n32)C1=O [Compound 29], the IC50 [3] is reported as 7 nM and the IC50 [4] is reported as 228 nM.
Molecule CCN1C[C@H]2C[C@@H](NCCC(F)(F)F)c3c(C(=O)NCc4ccc(F)cc4F)c(=O)c(O)c(n32)C1=O [Compound 30] has an IC50 [3] of 6 nM and an IC50 [4] of 31 nM.
[2H]C([2H])([2H])C([2H])([2H])N[C@H]1C[C@@H]2CN(CC)C(=O)c3c(O)c(=O)c(C(=O)NCc4ccc(F)cc4F)c1n32 [Compound 31] gave an IC50 [3] of 5 nM and an IC50 [4] of 3720 nM.
CCN1C[C@@H]2C[C@@H](N(C)C)c3c(C(=O)NCc4ccc(F)cc4F)c(=O)c(O)c(n32)C1=O [Compound 37] was tested, and the IC50 [1] was 2 nM and the IC50 [2] was 11 nM.
CCN1C[C@@H]2C[C@@H](N(C)C)c3c(C(=O)NCc4cccc(Cl)c4F)c(=O)c(O)c(n32)C1=O [Compound 38] showed an IC50 [3] of 1 nM and an IC50 [4] of 12 nM.
Molecule CCN1C[C@@H]2C[C@@H](N(C)C)c3c(C(=O)NCc4ccc(F)cc4)c(=O)c(O)c(n32)C1=O [Compound 39] has an IC50 [3] of 3 nM and an IC50 [4] of 22 nM.
